Assay results taken from patent publication US20070135383A1, “Phospholipase inhibitors, including multi-valent phospholipase inhibitors, and use thereof, including as lumen-localized phospholipase inhibitors” (priority 2005, published 2007).
Like-named read-outs stand apart in the source and are kept apart here.

Tests used:
Assay in all cases: Fluorimetric PPyrPM assay for group 1B PLA2 inhibition (Example 12)
Format in all cases: biochemical
[1] = target: T1, human group 1B PLA2 (hps PLA2) (Homo sapiens, UniProt P04054); conditions: for inhibition at 15 µM: read-out: ILYPSA % inhibition at 15 μM hps PLA2
T1 construct: made in house; host or cells: E. coli
T1 sequence (P04054 23-148): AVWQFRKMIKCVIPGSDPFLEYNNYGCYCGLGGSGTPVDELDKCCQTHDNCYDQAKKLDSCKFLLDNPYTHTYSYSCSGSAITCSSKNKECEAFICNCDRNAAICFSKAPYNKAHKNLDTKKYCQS
Text: (§1) In this example, a fluorimetric assay procedure was used to evaluate the indole and indole-related compounds of the invention as inhibitors of group 1B phospholipase A2 (PLA2) from human, mouse and porcine. A description of this assay is found in articles: Leslie, C C and Gelb, M H (2004) Methods in Molecular Biology “Assaying phospholipase A2 activity”, 284:229-242; Singer, A G, et al. (2002) Journal of Biological Chemistry “Interfacial kinetic and binding properties of the complete set of human and mouse groups I, II, V, X, and XII secreted phospholipases A2”, 277:48535-48549, which are incorporated herein as references.
(§2) In general, this assay used a phosphatidylmethanol substrate with a pyrene fluorophore on the terminal end of the sn-2 fatty acyl chain. Without being bound by theory, close proximity of the pyrenes from neighboring phospholipids in a phospholipid vesicle caused the spectral properties to change relative to that of monomeric pyrene. Bovine serum albumin was present in the aqueous phase and captured the pyrene fatty acid when it is liberated from the glycerol backbone owing to the PLA2-catalyzed reaction. However, a potent inhibitor can inhibit the liberation of pyrene fatty acid from the glycerol backbone. […] The effect of a given inhibitor and inhibitor concentration on human, mouse and porcine phospholipase was determined.
(§3) Recombinant human and mouse group 1B PLA2 were cloned and expressed in E. coli as insoluble inclusion bodies. The inclusion bodies were isolated and purified by sonicating cell pellet in lysis buffer (50 mM Tris-HCl pH 7.0, 250 mM NaCl, 0.5% Triton 100), centrifugation at 12,000×g, and washing three times in washing buffer (20 mM Tris-HCl pH 7.0, 250 mM NaCl, 0.5% Triton 100). Then the inclusion bodies were dissolved in dissolving buffer (50 mM Tris-HCl pH 7.0, 250 mM NaCl, 6 M Guanidine-HCl, 1 mM DTT) and dialyzed four times against 10 volumes of refolding buffer (20 mM Tris-HCl pH 7.0, 250 mM NaCl, 0.5M Guanidine-HCl, 5% (w/w) Glycerol, 2 mM reduced glutathione and 0.4 mM oxidized glutathione) at 4° C. The correctly refolded proteins were concentrated using Amicon Stirred cell under nitrogen pressure (<70 psi) and dialyzed against 10 volumes of 50 mM Tris-HCl pH 7.0, 250 mM NaCl and 5% (w/w) glycerol. Human and mouse group 1B PLA2 were further purified by High S ion exchange and gel filtration columns.
(§4) The following reagents and equipments were obtained from commercial vendors: • 1. Porcine group 1B phospholipase A2 • 2. 1-hexadecanoyl-2-(1-pyrenedecanoyl)-sn-glycero-3-phosphomethanol (PPyrPM) • 3. Bovine serum albumin (BSA, fatty acid free) • 4. 2-Amino-2-(hydroxymethyl)-1,3-propanediol, hydrochloride (Tris-HCl) • 5. Calcium chloride • 6. Potassium chloride • 7. Solvents: DMSO, toluene, isopropanol, ethanol • 8. Molecular Devices SPECTRAmax microplate spectrofluorometer • 9. Costar 96 well black wall/clear bottom plate
(§5) The following reagents were prepared: • 10. PPyrPM stock solution (1 mg/ml) in toluene:isopropanol (1:1) • 11. ILY104 inhibitor stock solution (10 mM) in DMSO • 12. 3% (w/v) bovine serum albumin (BSA) • 13. Stock buffer: 50 mM Tris-HCl, pH 8.0, 50 mM KCl and 1 mM CaCl2
(§6) The following procedure was performed to evaluate the inhibitory potency of the evaluated compounds. • 14. An assay buffer was prepared by adding 3 ml 3% BSA to 47 ml stock buffer. • 15. Solution A was prepared by adding serially diluted inhibitors to the assay buffer. Inhibitors were three-fold diluted in stock buffer in a series of 8 from 15 uM. • 16. Solution B was prepared by adding human, mouse or porcine PLA2 to the assay buffer. This solution was prepared immediately before use to minimize enzyme activity loss. • 17. Solution C was prepared by adding 30 ul PPyrPM stock solution to 90 ul ethanol, and then all 120 ul of PPyrPM solution was transferred drop-wise over approximately 1 min to the continuously stirring 8.82 ml assay buffer to form a final concentration of 4.2 uM PPyrPM vesicle solution. • 18. […]

[2] = target: T2, mouse group 1B PLA2 (mps PLA2) (Mus musculus, UniProt Q9Z0Y2); conditions: for inhibition at 15 µM: read-out: ILYPSA % inhibition at 15 μM mps PLA2
T2 construct: made in house; host or cells: E. coli
T2 sequence (Q9Z0Y2 23-146): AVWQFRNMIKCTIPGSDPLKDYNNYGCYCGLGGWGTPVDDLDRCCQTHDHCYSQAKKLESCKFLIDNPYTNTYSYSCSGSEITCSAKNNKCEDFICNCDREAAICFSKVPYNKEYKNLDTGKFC
Text: as §1, §2, §3, §4, §5, §6

[3] = target: T3, porcine group 1B PLA2 (pps PLA2) (Sus scrofa, UniProt P00592); conditions: porcine pancreas secreted PLA2; for IC50: read-out: ILYPSA IC50 pps PLA2
T3 construct: purchased
T3 sequence (P00592 23-146): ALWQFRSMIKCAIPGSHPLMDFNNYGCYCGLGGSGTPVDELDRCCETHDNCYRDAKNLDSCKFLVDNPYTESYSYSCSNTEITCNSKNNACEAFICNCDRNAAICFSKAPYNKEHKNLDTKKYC
Text: as §1, §2, §4, §5
The following procedure was performed to evaluate the inhibitory potency of the evaluated compounds. • 14. An assay buffer was prepared by adding 3 ml 3% BSA to 47 ml stock buffer. • 15. Solution A was prepared by adding serially diluted inhibitors to the assay buffer. Inhibitors were three-fold diluted in stock buffer in a series of 8 from 15 uM. • 16. Solution B was prepared by adding human, mouse or porcine PLA2 to the assay buffer. This solution was prepared immediately before use to minimize enzyme activity loss. • 17. Solution C was prepared by adding 30 ul PPyrPM stock solution to 90 ul ethanol, and then all 120 ul of PPyrPM solution was transferred drop-wise over approximately 1 min to the continuously stirring 8.82 ml assay buffer to form a final concentration of 4.2 uM PPyrPM vesicle solution. • 18. The SPECTRAmax microplate spectrofluorometer was set at 37° C. • 19. 100 ul of solution A was added to each inhibition assay well of a costar 96 well black wall/clear bottom plate • 20. 100 ul of solution B was added to each inhibition assay well of a costar 96 well black wall/clear bottom plate. • 21. 100 ul of solution C was added to each inhibition assay well of a costar 96 well black wall/clear bottom plate. • 22. The plate was incubated inside the spectrofluorometer chamber for 3 min. • 23. The fluorescence was read using an excitation of 342 nm and an emission of 395 nm.
Evaluated compounds were tested in duplicate and their values were averaged to plot the inhibition curve and calculate the IC50. Compared to uninhibited controls, lower fluorescent signal at an emission of 395 nm in test reactions evidenced inhibition of PLA2. […] Compounds initially found to be active were repeated to confirm their inhibitory activity. […]

[4] = human pancreas secreted PLA2, read-out: ILYPSA IC50 hps PLA2
[5] = mouse pancreas secreted PLA2, read-out: ILYPSA IC50 mps PLA2

SMILES: CCCCCCCCn1c(C)c(C(=O)C(N)=O)c2c(OCC(=O)O)nccc21 [ILY-II-8, (3-Aminooxalyl-2-methyl-1-octyl-1H-pyrrolo[3,2-c]pyridin-4-yloxy)-acetic acid]
- IC50 [1, 4]: 270 nM
- IC50 [2, 5]: 120 nM
- IC50 [3]: 80 nM

SMILES: Cc1c(C(=O)C(N)=O)c2c(OC(C(=O)O)C(=O)O)cccc2n1Cc1ccccc1 [ILY-IV-8, 2-(3-Aminoooxalyl-1-benzyl-2-methyl-1H-indol-4-yloxy)-malonic acid]
- inhibition at 15 µM ([1]; human pancreas secreted PLA2): 41%
- inhibition at 15 µM ([2]; mouse pancreas secreted PLA2): 61.2%
- IC50 [3]: 2250 nM

SMILES: Cc1c(C(=O)C(N)=O)c2c(OCC(=O)NS(C)(=O)=O)nccc2n1Cc1ccccc1 [ILY-II-7, 2-[1-Benzyl-4-(2-methanesulfonylamino-2-oxo-ethoxy)-2-methyl-1H-pyrrolo[3,2-c]pyridin-3-yl]-2-oxo-acetamide]
- IC50 [1, 4]: 2070 nM
- IC50 [2, 5]: 1050 nM
- IC50 [3]: 40 nM

SMILES: Cc1c(C(=O)C(N)=O)c2c(OC(CC(C)C)C(=O)O)cccc2n1Cc1ccccc1 (stereo not drawn) [ILY-IV-47, 2-(3-Aminooxalyl-1-benzyl-2-methyl-1H-indol-4-yloxy)-4-methyl-pentanoic acid]
- IC50 [1, 4]: 2940 nM
- IC50 [2, 5]: 2430 nM
- IC50 [3]: 20 nM

SMILES: Cc1c(C(=O)C(N)=O)c2c(OCC(=O)O)nccc2n1Cc1ccccc1-c1ccccc1 [ILY-II-4, (3-Aminooxalyl-1-biphenyl-2-ylmethyl-2-methyl-1H-pyrrolo[3,2-c]pyridin-4-yloxy)-acetic acid]
- IC50 [1]: 80 nM
- IC50 [2]: 70 nM
- IC50 [3]: < 20 nM

SMILES: Cc1c(C(=O)C(N)=O)c2c(OCC(=O)O)cccc2n1CCCCCCCCCCCCSCCCCSCCCCCCCCCCCCn1c(C)c(C(=O)C(N)=O)c2c(OCC(=O)O)cccc21 [ILY-V-25, 2,2′-(1,1′-(12,12′-(Butane-1,4-diylbis(sulfanediyl))bis(dodecane-12,1-diyl))bis(3-(2-amino-2-oxoacetyl)-2-methyl-1H-indole-4,1-diyl))bis(oxy)diacetic acid]
- IC50 [1, 4]: 150 nM
- IC50 [2, 5]: 350 nM
- IC50 [3]: 190 nM

SMILES: COc1cccc(Cn2c(C)c(C(=O)C(N)=O)c3c(OCC(=O)O)cccc32)c1 [ILY-V-8]
- IC50 [1, 4]: 3250 nM
- IC50 [2, 5]: 970 nM
- IC50 [3]: 40 nM

SMILES: Cc1c(C(=O)C(N)=O)c2c(OCC(=O)O)c(Br)ccc2n1Cc1ccccc1 [ILY-IV-3, (3-Aminooxalyl-1-benzyl-5-bromo-2-methyl-1H-indol-4-yloxy)-acetic acid]
- inhibition at 15 µM ([1]; human pancreas secreted PLA2): 35.8%
- inhibition at 15 µM ([2]; mouse pancreas secreted PLA2): 39.8%
- IC50 [3]: 5870 nM

SMILES: Cc1c(C(=O)C(N)=O)c2c(OC(F)(C(=O)O)C(F)(F)Br)cccc2n1Cc1ccccc1 (stereo not drawn) [ILY-IV-55, 2-(3-(2-amino-2-oxoacetyl)-1-benzyl-2-methyl-1H-indol-4-yloxy)-3-bromo-2,3,3-trifluoropropanoic acid]
- inhibition at 15 µM ([1]; human pancreas secreted PLA2): 34%
- inhibition at 15 µM ([2]; mouse pancreas secreted PLA2): 42.6%
- inhibition at 15 µM ([3]; read-out: ILYPSA % inhibition at 15 μM pps PLA2, 15 μM): 74.5%

SMILES: Cc1c(C(=O)C(N)=O)c2c(OCC(=O)O)cccc2n1CCCCCCCCSCCCCSCCCCCCCCn1c(C)c(C(=O)C(N)=O)c2c(OCC(=O)O)cccc21 [ILY-V-23, 2,2′-(1,1′-(8,8′-(butane-1,4-diylbis(sulfanediyl))bis(octane-8,1-diyl))bis(3-(2-amino-2-oxoacetyl)-2-methyl-1H-indole-4,1-diyl))bis(oxy)diacetic acid]
- IC50 [1, 4]: 2160 nM
- IC50 [2, 5]: 550 nM
- IC50 [3]: 1120 nM

SMILES: Cc1c(C(=O)C(N)=O)c2c(OCC(=O)O)cccc2n1CCCCCCCCCCCCOc1ccccc1OCCCCCCCCCCCCn1c(C)c(C(=O)C(N)=O)c2c(OCC(=O)O)cccc21 [ILY-V-27, [3-Aminooxalyl-1-(12-{2-[12-(3-aminooxalyl-4-carboxymethoxy-2-methyl-indol-1-yl)-dodecyloxy]-phenoxy}-dodecyl)-2-methyl-1H-indol-4-yloxy]-acetic acid]
- IC50 [1, 4]: 150 nM
- IC50 [2, 5]: 200 nM
- IC50 [3]: 150 nM
